Test results: US4255435A, “Triazole compounds” (priority 1980, dated 1981)
Values after ≈ are worked out from the molar mass of the structure shown.

Legend:
Type in all cases: in vivo
[1] = tested on: eggs of the cabbage root fly (Erioischia brassicae); experiment: Egg hatch of cabbage root fly eggs in test solution; conditions: Table 4; eggs stored six days, egg hatch counted, two replicates; 8640 min
Description: This example illustrates the activity of compounds of the invention against the eggs of the cabbage root fly (Erioischia brassicae).
The eggs were then stored for six days and the egg hatch then counted.

aphid Megoura viciae = experiment: Aphids on sprayed broad bean plants; conditions: Table 6; sprayed infested broad bean plants, 24 hours
Method: Broad bean plants 3 to 5 cm. high were infested with aphids and then sprayed with an aqueous dispersion containing varying concentrations of test compound. Each plant was kept under a lamp glass for 24 hours and then examined. In this way an LD50 value for the compounds was calculated.

[2] = tested on: larvae of the codling moth (Cydia pomonella); experiment: Codling moth larvae on sprayed apple (number of strikes); conditions: Table 5, after five days, two replicates, 7200 min
Description: This example illustrates the activity of compounds of the invention against the larvae of the codling moth (Cydia pomonella).
An apple sprayed with test solution was allowed to dry and a perspex ring of 1 inch diameter was attached to the apple. Ten larvae were then placed on the apple surface and contained within the ring by means of a muslin covering. After five days an assessment of mortality was made by counting the number of strikes (i.e. the number of entry holes) made by the larvae.

[3] = tested on: larvae of the diamond back moth (Plutella maculipennis); experiment: Mortality of larvae of the diamond back moth on treated cabbage leaf; conditions: for ACTIVITY LD50: Table 1, cabbage leaf dipped in test solution, mortality after 24 + 24 hours, two replicates; for ACTIVITY LD50 / Plutella maculipennis LD50 values: 2880 min; for Plutella maculipennis LD50 values: Table 2, comparative 1,2,4-triazoles, method of Example 9; for LC50: Plutella, 48 h, read-out: Plutella maculipennis LD50 values
Method: (§1) Ten larvae were placed in a tube together with a square inch of cabbage leaf which had been dipped in the test solution and allowed to dry. After twenty-four hours untreated cabbage was added for food and after a further twenty-four hours an assessment was made of the mortality of the larvae.
Two replicates were carried out for each test compound and test solutions of varying concentrations employed so that an LD50 value could be calculated.

[4] = tested on: nematode Meloidogyne incognita incognita; experiment: Root knots of tomato plants in nematode-infested treated soil; conditions: 100 parts per million per unit volume of soil, 30° C., ten days; untreated controls average more than 20 knots
Method: This example illustrates the activity of compounds of the invention against the nematode Meloidogyne incognita incognita.
Small tomato plants were transferred to containers with infested soil. Sufficient test compound to give a concentration of 100 parts per million per unit volume of soil was poured onto the soil and the containers suspended in warm water at 30° C.
After ten days the plants were knocked out of the containers and the roots washed clean, the number of knots being noted. The latter was an indication of activity and a low score indicated high activity.

[5] = tested on: larvae of the cabbage white butterfly (Pieris brassicae); experiment: Mortality of larvae of the cabbage white butterfly on treated cabbage leaf; conditions: Table 3; cabbage leaf dipped in test solution, mortality after 24 + 24 hours, two replicates; 2880 min
Method: This example illustrates the activity of compounds of the invention against larvae of the cabbage white butterfly (Pieris brassicae).
as §1

1(2)-N,N-dimethylcarbamoyl-3-isopropyl-5-(2-bromoallylthio)-1,2,4-triazole [methyl methyl isopropyl 2-bromoallyl]
ACTIVITY LD50 [1]: 0.9 p.p.m.

1(2)-N,N-dimethylcarbamoyl-3-isopropyl-5-(2-chloroallylthio)-1,2,4-triazole [methyl methyl isopropyl 2-chloroallyl]
ACTIVITY LD50 [1]: 0.27 p.p.m.
ACTIVITY LD50 (aphid Megoura viciae): 1.2 p.p.m.

1(2)-N,N-dimethylcarbamoyl-3-isopropyl-5-ethylthio-1,2,4-triazole [methyl methyl isopropyl ethyl]
ACTIVITY LD50 [2]: < 10 p.p.m.
ACTIVITY LD50 [3]: 140 p.p.m.

1(2)-N,N-dimethylcarbamoyl-3-isopropyl-5-propylthio-1,2,4-triazole [methyl methyl isopropyl propyl]
ACTIVITY LD50 [2]: < 10 p.p.m.
ACTIVITY LD50 [3]: 220 p.p.m.
ACTIVITY LD50 [1]: 0.57 p.p.m.
ACTIVITY LD50 (aphid Megoura viciae): 1.6 p.p.m.

1(2)-N,N-dimethylcarbamoyl-3-isopropyl-5-vinylthio-1,2,4-triazole [methyl methyl isopropyl vinyl]
ACTIVITY LD50 [3]: < 25 p.p.m.

1(2)-N,N-dimethylcarbamoyl-3-s-butyl-5-(2-chloroallylthio)-1,2,4-triazole [methyl methyl s-butyl 2-chloroallyl]
ACTIVITY LD50 [1]: 0.8 p.p.m.

1(2)-N,N-dimethylcarbamoyl-3-s-butyl-5-ethylthio-1,2,4-triazole [methyl methyl s-butyl ethyl]
ACTIVITY LD50 [2]: 18 p.p.m.
ACTIVITY LD50 [3]: 220 p.p.m.
ACTIVITY LD50 (aphid Megoura viciae): 0.66 p.p.m.

1(2)-N,N-dimethylcarbamoyl-3-s-butyl-5-methylthio-1,2,4-triazole [methyl methyl s-butyl methyl]
ACTIVITY LD50 [2]: 14 p.p.m.
ACTIVITY LD50 [3]: 140 p.p.m.
ACTIVITY LD50 (aphid Megoura viciae): 0.32 p.p.m.

1(2)-N,N-dimethylcarbamoyl-3-s-butyl-5-prop-2-ynylthio-1,2,4-triazole [methyl methyl s-butyl prop-2-ynyl]
ACTIVITY LD50 [3]: 270 p.p.m.

1(2)-N,N-dimethylcarbamoyl-3-s-butyl-5-propylthio-1,2,4-triazole [methyl methyl s-butyl propyl]
ACTIVITY LD50 [2]: 10 p.p.m.
ACTIVITY LD50 [3]: 320 p.p.m.
ACTIVITY LD50 (aphid Megoura viciae): 0.86 p.p.m.

1(2)-N,N-dimethylcarbamoyl-3-s-butyl-5-vinylthio-1,2,4-triazole [methyl methyl s-butyl vinyl]
ACTIVITY LD50 [3]: 160 p.p.m.

1(2)-N,N-dimethylcarbamoyl-3-t-butyl-5-ethylthio-1,2,4-triazole [methyl methyl t-butyl ethyl]
ACTIVITY LD50 [2]: 24 p.p.m.
number of knots on roots [4]: ≤ 2 knots
ACTIVITY LD50 (aphid Megoura viciae): 0.71 p.p.m.

1(2)-N,N-dimethylcarbamoyl-3-t-butyl-5-vinylthio-1,2,4-triazole [methyl methyl t-butyl vinyl]
ACTIVITY LD50 [3]: 160 p.p.m.
number of knots on roots [4]: ≤ 2 knots
ACTIVITY LD50 (aphid Megoura viciae): 0.61 p.p.m.

1(2)-N-ethyl-N-methylcarbamoyl-3-t-butyl-5-prop-2-ynylthio-1,2,4-triazole [ethyl methyl t-butyl prop-2-ynyl]
ACTIVITY LD50 [3]: 68 p.p.m.

1(2)-N-methyl-N-n-butylcarbamoyl-3-methylthio-5-methyl-1,2,4-triazole
Plutella maculipennis LD50 values [3]: > 5000 p.p.m.

1(2)-diallylcarbamoyl-3-ethylthio-5-methyl-1,2,4-triazole
Plutella maculipennis LD50 values [3]: > 5000 p.p.m.

1(2)-diethylcarbamoyl-3-methylthio-5-methyl-1,2,4-triazole
Plutella maculipennis LD50 values [3]: > 5000 p.p.m.

1(2)-dimethlcarbamoyl-3-ethylthio-5-methyl-1,2,4-triazole
Plutella maculipennis LD50 values [3]: 1600 p.p.m.

1(2)-pyrrolidinocarbonyl-3-methylthio-5-methyl-1,2,4-triazole
Plutella maculipennis LD50 values [3]: > 5000 p.p.m.

2(2)-dimethylthiocarbamoyl-3-methylthio-5-methyl-1,2,4-triazole
Plutella maculipennis LD50 values [3]: > 5000 p.p.m.

CC1CCN(C(=O)n2cncn2)CC1 [1-(4-methylpiperidinocarbonyl)-1,2,4-triazole]
LC50 [3]: > 5000 µg/mL

CCSc1ncn(C(=O)N(CC#N)CC#N)n1 [1-di(cyanomethyl)carbamoyl-3-ethylthio-1,2,4-triazole]
LC50 [3]: > 5000 µg/mL

C=CCN(CC=C)C(=O)n1cnc(SCCN(CC)CC)n1 [1-diallylcarbamoyl-3-(2-diethylaminoethylthio)-1,2,4-triazole]
LC50 [3]: > 5000 µg/mL

C=CCN(CC=C)C(=O)n1cnc(SCC(=O)OC)n1 [1-diallylcarbamoyl-3-methoxycarbonylmethylthio-1,2,4-triazole]
LC50 [3]: > 5000 µg/mL

CN(C)C(=O)n1cncn1 [1-dimethylcarbamoyl-1,2,4-triazole]
LC50 [3]: 1250 µg/mL (≈ 8.92 mM)

Cc1nc(C)n(C(=O)N(C)C)n1 [1-dimethylcarbamoyl-3,5-dimethyl-1,2,4-triazole]
LC50 [3]: > 5000 µg/mL

CN(C)C(=O)n1cnc(SSc2ncn(C(=O)N(C)C)n2)n1 [1-dimethylcarbamoyl-3-(1-dimethylcarbamoyl-1,2,4-triazole-3-yldithio)-1,2,4,-triazole]
LC50 [3]: > 5000 µg/mL

CN(C)C(=O)n1cnc(Sc2ccc([N+](=O)[O-])cc2[N+](=O)[O-])n1 [1-dimethylcarbamoyl-3-(2,4-dinitrophenylthio)-1,2,4-triazole]
LC50 [3]: > 5000 µg/mL

Cc1nc(SCc2ccccc2)nn1C(=O)N(C)C [1-dimethylcarbamoyl-3-benzylthio-5-methyl-1,2,4-triazole]
LC50 [3]: > 5000 µg/mL

CN(C)C(=O)n1cnc(Br)n1 [1-dimethylcarbamoyl-3-bromo-1,2,4-triazole]
LC50 [3]: > 5000 µg/mL

CN(C)C(=O)n1cnc(Cl)n1 [1-dimethylcarbamoyl-3-chloro-1,2,4-triazole]
LC50 [3]: > 5000 µg/mL

CN(C)C(=O)n1cnc(SC2CCCCC2)n1 [1-dimethylcarbamoyl-3-cyclohexylthio-1,2,4-triazole]
LC50 [3]: > 5000 µg/mL

CCCCCCCCCCCCSc1ncn(C(=O)N(C)C)n1 [1-dimethylcarbamoyl-3-dodecylthio-1,2,4-triazole]
LC50 [3]: > 5000 µg/mL

CCCCCCCCCCCCSc1nc(C)n(C(=O)N(C)C)n1 [1-dimethylcarbamoyl-3-dodecylthio-5-methyl-1,2,4-triazole]
LC50 [3]: > 5000 µg/mL

CCOC(=O)CSc1nc(C)n(C(=O)N(C)C)n1 [1-dimethylcarbamoyl-3-ethoxycarbonylmethylthio-5-methyl-1,2,4-triazole]
LC50 [3]: > 5000 µg/mL

CCc1nc(SC)n(C(=O)N(C)C)n1 [1-dimethylcarbamoyl-3-ethyl-5-methylthio-1,2,4-triazole]
LC50 [3]: 1900 µg/mL (≈ 8.87 mM)

Cc1ncn(C(=O)N(C)C)n1 [1-dimethylcarbamoyl-3-methyl-1,2,4-triazole]
LC50 [3]: > 5000 µg/mL

CSc1nc(C)nn1C(=O)N(C)C [1-dimethylcarbamoyl-3-methyl-5-methylthio-1,2,4-triazole]
LC50 [3]: 2200 µg/mL (≈ 11 mM)

CSc1ncn(C(=O)N(C)C)n1 [1-dimethylcarbamoyl-3-methylthio-1,2,4-triazole]
LC50 [3]: 2300 µg/mL (≈ 12.3 mM)

CCCCCCSc1ncn(C(=O)N(C)C)n1 [1-dimethylcarbamoyl-3-n-hexylthio-1,2,4-triazole]
LC50 [3]: > 5000 µg/mL

Cc1nc(Sc2ccc([N+](=O)[O-])cc2)nn1C(=O)N(C)C [1-dimethylcarbamoyl-3-p-nitrophenylthio-5-methyl-1,2,4-triazole]
LC50 [3]: > 5000 µg/mL

CSc1nc(-c2ccccc2)nn1C(=O)N(C)C [1-dimethylcarbamoyl-3-phenyl-5-methylthio-1,2,4-triazole]
LC50 [3]: > 5000 µg/mL

CCCCCCCCCCCc1nc(SC)n(C(=O)N(C)C)n1 [1-dimethylcarbamoyl-3-undecyl-5-methylthio-1,2,4-triazole]
LC50 [3]: > 5000 µg/mL

C#CCSc1nc(C(C)C)nn1C(=O)N(C)C [methyl methyl isopropyl prop-2-ynyl, 1(2)-N,N-dimethylcarbamoyl-3-isopropyl-5-prop-2-ynylthio-1,2,4-triazole]
ACTIVITY LD50 [3]: 87 p.p.m.
ACTIVITY LD50 [5]: 31 p.p.m.
ACTIVITY LD50 (aphid Megoura viciae): 1.5 p.p.m.

C=C(Br)CSc1nc(C(C)(C)C)nn1C(=O)N(C)C [methyl methyl t-butyl 2-bromoallyl, 1(2)-N,N-dimethylcarbamoyl-3-t-butyl-5-(2-bromoallylthio)-1,2,4-triazole]
ACTIVITY LD50 [1]: 0.57 p.p.m.
ACTIVITY LD50 (aphid Megoura viciae): 0.66 p.p.m.

C=C(Cl)CSc1nc(C(C)(C)C)nn1C(=O)N(C)C [methyl methyl t-butyl 2-chloroallyl, 1(2)-N,N-dimethylcarbamoyl-3-t-butyl-5-(2-chloroallylthio)-1,2,4-triazole]
ACTIVITY LD50 [1]: 0.22 p.p.m.
ACTIVITY LD50 (aphid Megoura viciae): 1.6 p.p.m.
